Source: ChEMBL document CHEMBL6078700, “Synthesis of novel deuterated EGFR/ALK dual-target inhibitors and their activity against non-small cell lung cancer” (Eur J Med Chem, 2025)

Legend:
NCI-H1975 [1] = assay: Induction of cell cycle arrest in human NCI-H1975 cells assessed as accumulation at S phase at 1 nM incubated for 24 hrs by PI/RNase staining based flow cytometry (reference value: 17.1 %); assay type: functional
NCI-H1975 [2] = assay: Induction of cell cycle arrest in human NCI-H1975 cells assessed as accumulation at S phase at 5 nM incubated for 24 hrs by PI/RNase staining based flow cytometry (reference value: 17.1 %); assay type: functional
[3] = Antiproliferative activity against human NCI-H1975 cells expressing EGFR mutation incubated for 48 hrs by CCK8 assay; conditions: nci-h1975
NCI-H1975 [4] = assay: Induction of cell cycle arrest in human NCI-H1975 cells assessed as accumulation at G0/G1 phase at 5 nM incubated for 24 hrs by PI/RNase staining based flow cytometry (reference value: 50.19 %); assay type: functional
[5] = Apparent volume of distribution during terminal phase in Sprague-Dawley rat at 1 mg/kg, iv; assay type: ADME, organism-based; conditions: in vivo
NCI-H1975 [6] = assay: Induction of cell cycle arrest in human NCI-H1975 cells assessed as accumulation at G2/M phase at 10 nM incubated for 24 hrs by PI/RNase staining based flow cytometry (reference value: 32.71 %); assay type: functional
NCI-H1975 [7] = assay: Induction of apoptosis in human NCI-H1975 cells assessed as viable cells at 10 nM incubated for 48 hrs by allo-Phycocyanin-Annexin V staining based flow cytometry (reference value: 93.6 %); assay type: functional; conditions: read-out: Activity
NCI-H1975 [8] = assay: Induction of apoptosis in human NCI-H1975 cells assessed as early apoptotic cells at 1 nM incubated for 48 hrs by allo-Phycocyanin-Annexin V staining based flow cytometry (reference value: 2.27 %); assay type: functional
[9] = Antiproliferative activity against human THLE-3 cells incubated for 48 hrs by CCK8 assay; assay type: toxicity, cell-based; conditions: thle-3, 48 h
L02 = assay: Antiproliferative activity against human L02 cells incubated for 48 hrs by CCK8 assay; assay type: toxicity, cell-based; conditions: l02, 48 h
BaF3 = assay: Antiproliferative activity against mouse BaF3 cells expressing EML4-ALK fusion incubated for 48 hrs by CCK8 assay; conditions: baf3
NCI-H1975 [10] = assay: Induction of cell cycle arrest in human NCI-H1975 cells assessed as accumulation at G0/G1 phase at 10 nM incubated for 24 hrs by PI/RNase staining based flow cytometry (reference value: 50.19 %); assay type: functional
[11] = Oral bioavailability in Sprague-Dawley rat at 10 mg/kg; assay type: ADME, organism-based; conditions: in vivo
[12] = MRT (0 to t) in Sprague-Dawley rat at 10 mg/kg, po; assay type: ADME, organism-based; conditions: in vivo
NCI-H1975 [13] = assay: Induction of apoptosis in human NCI-H1975 cells assessed as necrotic cells at 1 nM incubated for 48 hrs by allo-Phycocyanin-Annexin V staining based flow cytometry (reference value: 0.031 %); assay type: functional
HK-2 = assay: Antiproliferative activity against human HK-2 cells incubated for 48 hrs by CCK8 assay; assay type: toxicity, cell-based; conditions: hk-2, 48 h
[14] = Antiproliferative activity against human HLF1 cells incubated for 48 hrs by CCK8 assay; assay type: toxicity, cell-based; conditions: hlf1, 48 h
NCI-H1975 [15] = assay: Antitumor activity against human NCI-H1975 cells xenografted in BALB/c-nu mouse at 30 mg/kg, po administered daily orally for 21 days relative to control; assay type: functional; conditions: Mus musculus, NCI-H1975, po, 504 h, time 21 day, read-out: TGI
NCI-H1975 [16] = assay: Induction of apoptosis in human NCI-H1975 cells assessed as necrotic cells at 5 nM incubated for 48 hrs by allo-Phycocyanin-Annexin V staining based flow cytometry (reference value: 0.031 %); assay type: functional
NCI-H1975 [17] = assay: Induction of cell cycle arrest in human NCI-H1975 cells assessed as accumulation at S phase at 10 nM incubated for 24 hrs by PI/RNase staining based flow cytometry (reference value: 17.1 %); assay type: functional
NCI-H1975 [18] = assay: Induction of cell cycle arrest in human NCI-H1975 cells assessed as accumulation at G2/M phase at 1 nM incubated for 24 hrs by PI/RNase staining based flow cytometry (reference value: 32.71 %); assay type: functional
NCI-H1975 [19] = assay: Induction of apoptosis in human NCI-H1975 cells assessed as viable cells at 5 nM incubated for 48 hrs by allo-Phycocyanin-Annexin V staining based flow cytometry (reference value: 93.6 %); assay type: functional; conditions: Homo sapiens, NCI-H1975, read-out: Activity
NCI-H1975 [20] = assay: Induction of apoptosis in human NCI-H1975 cells assessed as viable cells at 1 nM incubated for 48 hrs by allo-Phycocyanin-Annexin V staining based flow cytometry (reference value: 93.6 %); assay type: functional; conditions: read-out: Activity
[21] = Cmax in Sprague-Dawley rat at 10 mg/kg, po; assay type: ADME, organism-based; conditions: in vivo
[22] = Half life in Sprague-Dawley rat at 1 mg/kg, iv; assay type: ADME, organism-based; conditions: in vivo
NCI-H1975 [23] = assay: Induction of apoptosis in human NCI-H1975 cells assessed as early apoptotic cells at 5 nM incubated for 48 hrs by allo-Phycocyanin-Annexin V staining based flow cytometry (reference value: 2.27 %); assay type: functional
[24] = Half life in Sprague-Dawley rat at 10 mg/kg, po; assay type: ADME, organism-based; conditions: in vivo
NCI-H2228 = assay: Antiproliferative activity against human NCI-H2228 cells expressing EML4-ALK fusion incubated for 48 hrs by CCK8 assay; conditions: nci-h2228
[25] = Apparent oral clearance in Sprague-Dawley rat at 1 mg/kg, iv; assay type: ADME, organism-based; conditions: in vivo
NCI-H1975 [26] = assay: Antitumor activity against human NCI-H1975 cells xenografted in BALB/c-nu mouse at 5 mg/kg, po administered daily orally for 21 days relative to control; assay type: functional; conditions: Mus musculus, NCI-H1975, po, 504 h, time 21 day, read-out: TGI
[27] = Tmax in Sprague-Dawley rat at 1 mg/kg, iv; assay type: ADME, organism-based; conditions: in vivo
NCI-H1975 [28] = assay: Induction of apoptosis in human NCI-H1975 cells assessed as late apoptotic cells at 5 nM incubated for 48 hrs by allo-Phycocyanin-Annexin V staining based flow cytometry (reference value: 4.08 %); assay type: functional
NCI-H1975 [29] = assay: Induction of apoptosis in human NCI-H1975 cells assessed as late apoptotic cells at 1 nM incubated for 48 hrs by allo-Phycocyanin-Annexin V staining based flow cytometry (reference value: 4.08 %); assay type: functional
NCI-H1975 [30] = assay: Induction of cell cycle arrest in human NCI-H1975 cells assessed as accumulation at G0/G1 phase at 1 nM incubated for 24 hrs by PI/RNase staining based flow cytometry (reference value: 50.19 %); assay type: functional
NCI-H1975 [31] = assay: Induction of apoptosis in human NCI-H1975 cells assessed as early apoptotic cells at 10 nM incubated for 48 hrs by allo-Phycocyanin-Annexin V staining based flow cytometry (reference value: 2.27 %); assay type: functional
NCI-H1975 [32] = assay: Induction of apoptosis in human NCI-H1975 cells assessed as necrotic cells at 10 nM incubated for 48 hrs by allo-Phycocyanin-Annexin V staining based flow cytometry (reference value: 0.031 %); assay type: functional
NCI-H1975 [33] = assay: Antitumor activity against human NCI-H1975 cells xenografted in BALB/c-nu mouse at 15 mg/kg, po administered daily orally for 21 days relative to control; assay type: functional; conditions: Mus musculus, NCI-H1975, po, 504 h, time 21 day, read-out: TGI
NCI-H1975 [34] = assay: Induction of cell cycle arrest in human NCI-H1975 cells assessed as accumulation at G2/M phase at 5 nM incubated for 24 hrs by PI/RNase staining based flow cytometry (reference value: 32.71 %); assay type: functional
[35] = Tmax in Sprague-Dawley rat at 10 mg/kg, po; assay type: ADME, organism-based; conditions: in vivo
NCI-H1975 [36] = assay: Induction of apoptosis in human NCI-H1975 cells assessed as late apoptotic cells at 10 nM incubated for 48 hrs by allo-Phycocyanin-Annexin V staining based flow cytometry (reference value: 4.08 %); assay type: functional
NCI-H522 = assay: Antiproliferative activity against human NCI-H522 cells expressing wild-type EGFR/ALK incubated for 48 hrs by CCK8 assay; conditions: nci-h522

[2H]C([2H])([2H])C([2H])([2H])[S+]([O-])c1ccccc1Nc1nc(Nc2cc(NC(=O)C=C)c(N(C)CCN(C)C)cc2OC)ncc1Cl (single isomer, unassigned; (-))
Activity (NCI-H1975 [1]): 12.5% | Activity (NCI-H1975 [2]): 3.78% | IC50 [3]: 1.08 nM | Activity (NCI-H1975 [4]): 67.31% | Vz/F [5]: 5.9 L/kg | Activity (NCI-H1975 [6]): 28.2% | viability at 0.01 µM (NCI-H1975 [7]): 46.8% | Activity (NCI-H1975 [8]): 16.6% | Activity [9]: Non-toxic | Activity (L02): Non-toxic | IC50 (BaF3): 2.4 nM | Activity (NCI-H1975 [10]): 68.32% | bioavailability [11]: 44.1% | MRT last [12]: 3.57 h | Activity (NCI-H1975 [13]): 0.071% | Activity (HK-2): Non-toxic | Activity [14]: Non-toxic | inhibition in vivo at 30 mg/kg (NCI-H1975 [15]): 97.2% | Activity (NCI-H1975 [16]): 0.16% | Activity (NCI-H1975 [17]): 3.84% | Activity (NCI-H1975 [18]): 22.93% | viability at 0.005 µM (NCI-H1975 [19]): 62.8% | viability at 0.001 µM (NCI-H1975 [20]): 75.4% | Cmax [21]: 169 ng/mL | half-life [22]: 1.06 h | Activity (NCI-H1975 [23]): 22.8% | half-life [24]: 4.65 h | IC50 (NCI-H2228): 21.5 nM | CL/F [25]: 63.7 mL/min/kg | inhibition in vivo at 5 mg/kg (NCI-H1975 [26]): 80.3% | Tmax [27]: 1.98 min | Activity (NCI-H1975 [28]): 14.3% | Activity (NCI-H1975 [29]): 7.98% | Activity (NCI-H1975 [30]): 64.57% | Activity (NCI-H1975 [31]): 32.5% | Activity (NCI-H1975 [32]): 0.22% | inhibition in vivo at 15 mg/kg (NCI-H1975 [33]): 93.2% | Activity (NCI-H1975 [34]): 28.91% | Tmax [35]: 0.5 h | Activity (NCI-H1975 [36]): 20.5% | IC50 (NCI-H522): 1960 nM
